{"source": "patent US20200261391A1", "about": "“METHODS OF REDUCING THE RISK OF A CARDIOVASCULAR EVENT IN A STATIN-TREATED SUBJECT BY INCREASING SERUM AND PLASMA EPA AND DPA LEVELS” (Amarin Pharmaceuticals Ireland Limited, priority 2019, published 2020)", "test_system": "patients with elevated triglyceride levels on statin therapy with established cardiovascular disease or at high risk", "assay": "REDUCE-IT trial: time to first occurrence of adjudicated cardiovascular endpoint events, AMR101 4 g daily vs placebo", "type": "in vivo, human", "from_the_text": "The following study, also referred to as the REDUCE-IT clinical trial, was a large cardiovascular (CV) outcome trial designed to assess CV risk reduction benefit of AMR101 treatment (commercially known as VASCEPA®) versus placebo on the 5-point primary composite endpoint: CV death, non-fatal stroke, non-fatal myocardial infarction (MI), coronary revascularizations, or unstable angina requiring hospitalization.\nA multi-center, prospective, randomized, double-blind, placebo-controlled, parallel-group study was performed to evaluate the effect of AMR101 (4 g per day) on cardiovascular health and mortality in hypertriglyceridemic patients with cardiovascular disease or at high risk for cardiovascular disease. The intended expanded indication of the study was treatment with AMR101 as an add-on to statin therapy to reduce the risk of cardiovascular events in patients with clinical cardiovascular disease or with multiple risk factors for cardiovascular disease.\nThe primary objective of this study was, in patients at LDL-C goal while on statin therapy, with established cardiovascular disease (CVD) or at high risk for CVD, and hypertriglyceridemia (e.g., fasting triglycerides(TG)≥200 mg/dL and <500 mg/dL), to evaluate the effect of AMR101 4 g daily on time from randomization to first occurrence of any component of the composite of the following major CV events: CV death; nonfatal MI; (including silent MI; electrocardiograms (ECGs) were performed annually for the detection of silent MIs); nonfatal stroke; coronary revascularization; and unstable angina determined to be caused by myocardial ischemia by invasive/non-invasive testing and requiring emergent hospitalization.\nThe key secondary objective of this study was to evaluate the effect of AMR101 4 g daily on the time from randomization to the first occurrence of the composite of following major CV events: CV death, nonfatal MI (including silent MI), and nonfatal stroke.\nOther secondary objectives for this study were to evaluate the effect of therapy on time from randomization to the first occurrence of the following individual or composite endpoints: composite of CV death or nonfatal MI (including silent MI); fatal or nonfatal MI (including silent MI); non-elective coronary revascularization represented as the composite of emergent or urgent classifications; CV death; unstable angina determined to be caused by myocardial ischemia by invasive/non-invasive testing and requiring emergent hospitalization; fatal or nonfatal stroke; composite of total mortality, nonfatal MI (including silent MI), or nonfatal stroke; and total mortality.\nPrimary Efficacy Endpoint: The primary efficacy endpoint was time from randomization to the first occurrence of the composite of the following clinical events: CV death; nonfatal MI (including silent MI; ECGs were performed annually for the detection of silent MIs); nonfatal stroke; coronary revascularization; and unstable angina determined to be caused by myocardial ischemia by invasive/non-invasive testing and requiring emergent hospitalization. The first occurrence of any of these major adverse vascular events during the follow-up period of the study were included in the incidence.\nSecondary Efficacy Endpoints: The key secondary efficacy endpoint was the time from randomization to the first occurrence of the composite of CV death, nonfatal MI (including silent MI), or nonfatal stroke. […]", "key": {"[1]": {"settings": "adjudicated tertiary endpoint, listed as AMR101"}, "[2]": {"settings": "adjudicated tertiary endpoint, listed as Icosapent Ethyl"}, "[3]": {"settings": "vs placebo, median follow up 4.9 years"}, "[4]": {"settings": "vs placebo, time to first event"}, "[5]": {"settings": "vs placebo, time to first occurrence"}}, "note": "Where “and” joins values, the source holds several entries; their conditions need not be identical. Identical values can stand only once.", "data": [{"molecule": "CC/C=C\\C/C=C\\C/C=C\\C/C=C\\C/C=C\\CCCC(=O)OCC", "note": "[icosapent ethyl, eicosapentaenoic acid ethyl ester]", "values": [{"measurement": "Amputation for PVD, patients with event", "setting": "adjudicated tertiary endpoint", "result": "(0.5%)"}, {"measurement": "Cardiac Arrest, patients with event", "setting": "adjudicated tertiary endpoint", "result": "(0.5%)"}, {"measurement": "Cardiac Arrhythmias Requiring Hospitalization of ≥24 Hours, patients with event", "setting": "adjudicated tertiary endpoint", "result": "(4.6%)"}, {"measurement": "Carotid Revascularization, patients with event", "setting": "adjudicated tertiary endpoint", "result": "(0.8%)"}, {"measurement": "Coronary Revascularization, patients with event", "setting": "adjudicated tertiary endpoint", "result": "(9.2%)"}, {"measurement": "Elective Revascularization, patients with event", "setting": "adjudicated tertiary endpoint", "result": "(4.7%)"}, {"measurement": "Emergent Revascularization, patients with event", "setting": "adjudicated tertiary endpoint", "result": "(1.0%)"}, {"measurement": "Ischemic Stroke, patients with event", "setting": "adjudicated tertiary endpoint", "result": "(2.0%)"}, {"measurement": "New Heart Failure Requiring Hospitalization, patients with event", "setting": "adjudicated tertiary endpoint", "result": "(3.4%)"}, {"measurement": "Primary Endpoint in Patients with Diabetes at Baseline, patients with event", "setting": "adjudicated tertiary endpoint", "result": "(18.1%)"}, {"measurement": "Salvage Revascularization, patients with event", "setting": "adjudicated tertiary endpoint", "result": "(0.0%)"}, {"measurement": "Sudden Cardiac Death, patients with event", "setting": "adjudicated tertiary endpoint", "result": 1.5, "unit": "%"}, {"measurement": "Transient Ischemic Attack, patients with event", "setting": "adjudicated tertiary endpoint", "result": "(1.6%)"}, {"measurement": "Urgent Revascularization, patients with event", "setting": "adjudicated tertiary endpoint", "result": "(4.4%)"}, {"measurement": "Hemorrhagic Stroke, patients with event", "setting": "[1]", "result": 0.3, "unit": "%"}, {"measurement": "New Heart Failure, patients with event", "setting": "[1]", "result": 4.1, "unit": "%"}, {"measurement": "Hemorrhagic Stroke, patients with event", "setting": "[2]", "result": "(0.3%)"}, {"measurement": "New Heart Failure, patients with event", "setting": "[2]", "result": "(4.1%)"}, {"measurement": "Sudden Cardiac Death, patients with event", "setting": "[2]", "result": "(1.5%)"}, {"measurement": "key secondary composite endpoint, patients with event", "setting": "first occurrence of CV death, nonfatal MI or nonfatal stroke, median follow up 4.9 years", "result": 11.2, "unit": "%"}, {"measurement": "primary composite endpoint, patients with event", "setting": "first occurrence of CV death, nonfatal MI, nonfatal stroke, coronary revascularization or unstable angina, median follow up 4.9 years", "result": 17.2, "unit": "%"}, {"measurement": "cardiovascular death, patients with event", "setting": "in vivo", "result": 4.3, "unit": "%"}, {"measurement": "total mortality, patients with event", "setting": "in vivo", "result": 6.7, "unit": "%"}, {"measurement": "key secondary composite endpoint, number needed to treat", "setting": "median follow up 4.9 years", "result": 28}, {"measurement": "primary composite endpoint, number needed to treat", "setting": "median follow up 4.9 years", "result": 21}, {"measurement": "New Onset of Diabetes, patients with event", "setting": "patients with diabetes at baseline excluded", "result": "(3.8%)"}, {"measurement": "Amputation for PVD, HR", "setting": "vs placebo", "result": 1.04}, {"measurement": "Cardiac Arrest, HR", "setting": "vs placebo", "result": 0.52}, {"measurement": "Cardiac Arrhythmias Requiring Hospitalization of ≥24 Hours, HR", "setting": "vs placebo", "result": 1.21}, {"measurement": "Carotid Revascularization, HR", "setting": "vs placebo", "result": 1.18}, {"measurement": "Coronary Revascularization, HR", "setting": "vs placebo", "result": 0.66}, {"measurement": "Elective Revascularization, HR", "setting": "vs placebo", "result": 0.68}, {"measurement": "Emergent Revascularization, HR", "setting": "vs placebo", "result": 0.62}, {"measurement": "Hemorrhagic Stroke, HR", "setting": "vs placebo", "result": 1.28}, {"measurement": "Ischemic Stroke, HR", "setting": "vs placebo", "result": 0.64}, {"measurement": "New Heart Failure Requiring Hospitalization, HR", "setting": "vs placebo", "result": 0.97}, {"measurement": "New Heart Failure, HR", "setting": "vs placebo", "result": 0.95}, {"measurement": "Primary Endpoint in Patients with Diabetes at Baseline, HR", "setting": "vs placebo", "result": 0.77}, {"measurement": "Salvage Revascularization, HR", "setting": "vs placebo", "result": 0.00}, {"measurement": "Sudden Cardiac Death, HR", "setting": "vs placebo", "result": 0.69}, {"measurement": "Transient Ischemic Attack, HR", "setting": "vs placebo", "result": 1.32}, {"measurement": "Urgent Revascularization, HR", "setting": "vs placebo", "result": 0.66}, {"measurement": "cardiac arrest, reduction", "setting": "vs placebo", "result": 48, "unit": "%"}, {"measurement": "cardiovascular death, HR", "setting": "vs placebo", "result": 0.80}, {"measurement": "cardiovascular death, relative risk reduction", "setting": "vs placebo", "result": 20, "unit": "%"}, {"measurement": "composite of cardiovascular death or nonfatal myocardial infarction, RRR", "setting": "vs placebo", "result": 25, "unit": "%"}, {"measurement": "composite of total mortality, nonfatal myocardial infarction, or nonfatal stroke, RRR", "setting": "vs placebo", "result": 23, "unit": "%"}, {"measurement": "fatal or nonfatal myocardial infarction, RRR", "setting": "vs placebo", "result": 31, "unit": "%"}, {"measurement": "fatal or nonfatal stroke, RRR", "setting": "vs placebo", "result": 28, "unit": "%"}, {"measurement": "hospitalization for unstable angina, RRR", "setting": "vs placebo", "result": 32, "unit": "%"}, {"measurement": "myocardial infarction, HR", "setting": "vs placebo", "result": 0.69}, {"measurement": "primary endpoint risk reduction, post hoc analysis excluding patients with diarrhea", "setting": "vs placebo", "result": 25, "unit": "%"}, {"measurement": "stroke, HR", "setting": "vs placebo", "result": 0.72}, {"measurement": "sudden cardiac death, reduction", "setting": "vs placebo", "result": 31, "unit": "%"}, {"measurement": "total mortality, HR", "setting": "vs placebo", "result": 0.87}, {"measurement": "total mortality, relative risk reduction", "setting": "vs placebo", "result": 13, "unit": "%"}, {"measurement": "urgent or emergent revascularization, RRR", "setting": "vs placebo", "result": 35, "unit": "%"}, {"measurement": "key secondary composite endpoint, absolute risk reduction", "setting": "[3]", "result": 3.6, "unit": "%"}, {"measurement": "primary composite endpoint, absolute risk reduction", "setting": "[3]", "result": 4.8, "unit": "%"}, {"measurement": "New Onset of Diabetes, HR", "setting": "vs placebo, patients with diabetes at baseline excluded", "result": 1.04}, {"measurement": "key secondary composite endpoint, relative risk reduction", "setting": "[4]", "result": "26% and 26.5%"}, {"measurement": "primary composite endpoint, relative risk reduction", "setting": "[4]", "result": "25% and 24.8%"}, {"measurement": "key secondary composite endpoint, HR", "setting": "[5]", "result": 0.74}, {"measurement": "primary composite endpoint, HR", "setting": "[5]", "result": 0.75}]}]}
